Experiment [1] concerns the target T1, Cytoplasmic tyrosine-protein kinase BMX (Homo sapiens) (UniProt P51813).
T1 sequence (whole entry): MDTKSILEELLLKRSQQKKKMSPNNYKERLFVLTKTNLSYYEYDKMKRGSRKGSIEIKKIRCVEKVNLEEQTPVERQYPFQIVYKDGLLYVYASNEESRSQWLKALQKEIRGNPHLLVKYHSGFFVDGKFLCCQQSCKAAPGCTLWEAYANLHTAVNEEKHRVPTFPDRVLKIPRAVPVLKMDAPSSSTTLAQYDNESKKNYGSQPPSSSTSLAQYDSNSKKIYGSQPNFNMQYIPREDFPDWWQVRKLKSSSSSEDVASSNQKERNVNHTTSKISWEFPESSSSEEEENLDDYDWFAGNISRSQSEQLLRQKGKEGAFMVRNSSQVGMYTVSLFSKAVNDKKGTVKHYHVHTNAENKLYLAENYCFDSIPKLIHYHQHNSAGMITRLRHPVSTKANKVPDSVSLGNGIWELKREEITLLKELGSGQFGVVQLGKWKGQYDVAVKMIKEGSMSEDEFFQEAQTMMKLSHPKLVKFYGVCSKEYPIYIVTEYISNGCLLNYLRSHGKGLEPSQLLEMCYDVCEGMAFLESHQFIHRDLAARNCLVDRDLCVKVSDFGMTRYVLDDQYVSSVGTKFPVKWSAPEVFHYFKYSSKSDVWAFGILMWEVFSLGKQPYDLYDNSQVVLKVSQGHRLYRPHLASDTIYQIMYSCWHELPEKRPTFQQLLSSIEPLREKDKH
Put plainly: Inhibition of BMX (unknown origin) assessed as residual activity at 1000 nM by KINOMEscan analysis relative to control.

Experiment [2] has as its target T2, Ephrin type-A receptor 3 (Homo sapiens) (UniProt P29320).
T2 sequence (whole entry): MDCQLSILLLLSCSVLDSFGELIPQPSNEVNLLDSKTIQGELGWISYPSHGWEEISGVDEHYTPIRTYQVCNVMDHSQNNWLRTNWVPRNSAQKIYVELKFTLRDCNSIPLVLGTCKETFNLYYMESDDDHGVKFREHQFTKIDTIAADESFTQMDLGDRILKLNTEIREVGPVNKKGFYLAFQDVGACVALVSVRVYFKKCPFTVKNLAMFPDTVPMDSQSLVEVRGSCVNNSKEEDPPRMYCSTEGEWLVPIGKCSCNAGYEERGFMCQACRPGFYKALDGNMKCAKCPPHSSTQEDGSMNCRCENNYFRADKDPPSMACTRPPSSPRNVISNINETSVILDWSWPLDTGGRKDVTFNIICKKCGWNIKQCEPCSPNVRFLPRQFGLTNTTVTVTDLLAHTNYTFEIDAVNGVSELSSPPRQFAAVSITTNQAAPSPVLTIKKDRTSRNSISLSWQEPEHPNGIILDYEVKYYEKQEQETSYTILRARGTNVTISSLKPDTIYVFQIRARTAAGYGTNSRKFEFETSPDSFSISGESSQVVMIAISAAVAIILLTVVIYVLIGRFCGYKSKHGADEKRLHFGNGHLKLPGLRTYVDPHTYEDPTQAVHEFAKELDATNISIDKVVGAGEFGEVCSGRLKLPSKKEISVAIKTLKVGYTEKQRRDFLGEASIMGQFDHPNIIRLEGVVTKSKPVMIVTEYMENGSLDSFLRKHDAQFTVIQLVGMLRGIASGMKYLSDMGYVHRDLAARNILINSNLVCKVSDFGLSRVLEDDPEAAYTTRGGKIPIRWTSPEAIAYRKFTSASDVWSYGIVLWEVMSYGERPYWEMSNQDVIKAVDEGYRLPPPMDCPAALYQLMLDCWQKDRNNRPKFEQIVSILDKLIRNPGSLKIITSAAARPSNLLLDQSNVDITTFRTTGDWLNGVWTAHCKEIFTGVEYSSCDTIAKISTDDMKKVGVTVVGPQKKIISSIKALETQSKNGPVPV
Put plainly: Inhibition of EPHA3 (unknown origin) assessed as residual activity at 1000 nM by KINOMEscan analysis relative to control.

In experiment [3] the target is Ribosomal protein S6 kinase alpha-6 (Homo sapiens) (UniProt Q9UK32). Put plainly: Inhibition of C-terminal RSK4 kinetic domain 2 (unknown origin) assessed as residual activity at 1000 nM by KINOMEscan analysis relative to control.
Experiment [4] has as its target Tyrosine-protein kinase SYK (Homo sapiens) (UniProt P43405). Put plainly: Inhibition of SYK (unknown origin) assessed as residual activity at 1000 nM by KINOMEscan analysis relative to control.
In experiment [5] the target is Wee1-like protein kinase 2 (Homo sapiens) (UniProt P0C1S8). Kind of experiment: Inhibition of WEE2 (unknown origin) assessed as residual activity at 1000 nM by KINOMEscan analysis relative to control.
Chain of Wee1-like protein kinase 2 (Homo sapiens) (P0C1S8 whole entry, looked up): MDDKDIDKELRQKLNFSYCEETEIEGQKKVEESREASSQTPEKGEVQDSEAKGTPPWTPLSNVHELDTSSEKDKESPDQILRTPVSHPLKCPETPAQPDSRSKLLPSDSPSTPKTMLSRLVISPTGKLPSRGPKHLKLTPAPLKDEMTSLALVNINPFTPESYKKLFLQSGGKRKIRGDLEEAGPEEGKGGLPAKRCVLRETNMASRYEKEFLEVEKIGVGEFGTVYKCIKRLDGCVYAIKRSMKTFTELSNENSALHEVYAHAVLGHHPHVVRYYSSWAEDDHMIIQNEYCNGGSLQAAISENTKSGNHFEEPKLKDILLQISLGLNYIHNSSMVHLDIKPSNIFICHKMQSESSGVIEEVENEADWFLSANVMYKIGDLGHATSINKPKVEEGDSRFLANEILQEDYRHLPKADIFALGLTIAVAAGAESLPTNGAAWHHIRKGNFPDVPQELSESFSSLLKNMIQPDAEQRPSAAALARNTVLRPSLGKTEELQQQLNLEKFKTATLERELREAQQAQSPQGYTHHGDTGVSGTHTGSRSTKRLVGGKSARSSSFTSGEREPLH

Chain of Ribosomal protein S6 kinase alpha-6 (Homo sapiens) (Q9UK32 whole entry, the tested form may be a part): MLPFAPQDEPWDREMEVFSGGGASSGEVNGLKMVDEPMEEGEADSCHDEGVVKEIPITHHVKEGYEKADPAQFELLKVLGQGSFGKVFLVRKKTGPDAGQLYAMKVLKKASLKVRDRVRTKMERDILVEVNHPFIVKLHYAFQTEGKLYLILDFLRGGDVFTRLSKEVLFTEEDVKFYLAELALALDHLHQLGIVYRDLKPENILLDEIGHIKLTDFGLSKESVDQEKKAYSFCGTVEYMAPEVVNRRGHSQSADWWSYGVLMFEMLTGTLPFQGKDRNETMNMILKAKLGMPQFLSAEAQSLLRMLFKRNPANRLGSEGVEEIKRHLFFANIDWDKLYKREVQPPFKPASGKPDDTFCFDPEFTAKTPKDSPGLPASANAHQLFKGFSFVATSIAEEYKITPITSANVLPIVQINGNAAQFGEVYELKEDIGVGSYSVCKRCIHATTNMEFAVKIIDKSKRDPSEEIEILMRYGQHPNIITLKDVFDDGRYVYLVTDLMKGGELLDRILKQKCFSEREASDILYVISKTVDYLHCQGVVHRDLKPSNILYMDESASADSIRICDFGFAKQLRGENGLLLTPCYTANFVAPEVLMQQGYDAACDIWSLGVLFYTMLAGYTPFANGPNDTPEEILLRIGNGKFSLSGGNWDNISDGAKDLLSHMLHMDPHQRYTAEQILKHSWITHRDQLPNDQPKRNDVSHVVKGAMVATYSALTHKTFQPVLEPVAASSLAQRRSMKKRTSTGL

On to `COc1cc2nc(C)nc(N[C@H](C)c3cccc(-c4cn[nH]c4)c3)c2cc1OC`, for which the Activity worked out at 100% in experiment [1]; 90% in experiment [2]; 53% in experiment [3]; 76% in experiment [4]; 65% in experiment [5].

As to `COc1cc2ncnc(N[C@H](C)c3cccc4ccccc34)c2cc1OC`, the Activity in experiment [1] was 97%; in experiment [2], 48%; in experiment [3] it was 95%; in experiment [4] it was 100%; in experiment [5], 100%.

For the origin of these results see ChEMBL document CHEMBL5678818, “Discovery of potent SOS1 inhibitors that block RAS activation via disruption of the RAS-SOS1 interaction” (Proc Natl Acad Sci U S A, 2019).
